Laboratory results as given in patent US7544438B2, “Electron mediator, electron mediator immobilized electrode, and biofuel cell using the electrode” (Daiichi Pure Chemicals Co., Ltd, priority 2003, dated 2009).

system: not listed separately; experiment: Cyclic voltammetry (CV), redox potential of mediator molecule; format: physicochemical; details: 0.09 mM mediator in Tris buffer solution (pH 8.5); glassy carbon electrode; Ag|AgCl (saturated KCl) reference; 5 mV/s
Text: [Cyclic Voltammetry (CV), Redox Potential of Mediator Molecule]
The obtained voltammogram represents the potential on an abscissa axis and the current on an ordinate axis. The CV involves relatively easy experiments and sharply reflects not only equilibrium parameters such as the redox potential or diffusion information but also kinetic parameters of an electrode reaction or of a chemical reaction in solution. Thus, the CV is a method of electrochemical measurement allowing an intuitive grasp of the electrode reaction.
The CV for mediator evaluation involves measuring in an electrolytic solution consisting of the buffer with various mediators, diaphorase, and NADH added.
A potentiostat mode of Hokuto Denko HZ-3000 was used. A glassy carbon electrode (GDE, electrode area of about 0.083 cm^2) was used as a working electrode. The GDE was polished with an aluminum powder of 0.05 μm and subjected to ultrasonic cleaning in deionized water before every measurement. A three electrode cell was used, and a Pt electrode and an Ag|AgCl (saturated KCl) electrode were used as a counter electrode and a reference electrode, respectively for the measurement. A potential was changed at a rate of 5 mV/s. A measurement sample was subjected to sufficient bubbling with N2 gas before the measurement to remove dissolved oxygen, and the N2 gas overflowed during the measurement. All measurements began from an open circuit potential.
Cyclic voltammograms with (a) in FIGS. 5A to 5F are measurement of 0.09 mM solutions of the various mediators prepared using a Tris buffer solution (pH 8.5).

Row | SMILES | redox formal potentials (E^0M′) approximated at middle points of oxidation peaks and reduction peaks
1 | CC1=C(CCCC(=O)NCCN)C(=O)c2ccccc2C1=O [AEACPVK3, 2-{3-[N-(2-aminoethyl)aminocarbonyl]propyl}-3-methyl-1,4-naphthoquinone] | −0.32 V
2 | O=C1c2ccccc2C(=O)c2cc(S(=O)(=O)[O-])ccc21.[Na+] [AQS, sodium anthraquinone-2-sulfonate] | −0.49 V
3 | OC[c-]1cccc1.[Fe+2].c1cc[cH-]c1 [FMA, ferrocene methanol] | 0.23 V

Now from value to compound:

Row | redox formal potentials (E^0M′) approximated at middle points of oxidation peaks and reduction peaks | SMILES
4 | −0.32 V | CC1=C(CCCN)C(=O)c2ccccc2C1=O [APVK3, 2-(3-aminopropyl)-3-methyl-1,4-naphthoquinone]
5 | −0.32 V | CC1=C(CCCC(=O)O)C(=O)c2ccccc2C1=O [CPVK3, 2-(3-carboxypropyl)-3-methyl-1,4-naphthoquinone]
6 | −0.28 V | CC1=CC(=O)c2ccccc2C1=O [VK3, 2-methyl-1,4-naphthoquinone]

system: Dp (DIAPHORASE I, [EC 1.6.99.-]); experiment: Reaction kinetic analysis between diaphorase (Dp) and mediator by CV; format: biochemical, Bacillus stearothermophilus; details: comparison of FMA with AQS, FIG. 6
Text: A technique of reaction kinetic analysis between an enzyme and a mediator molecule using CV will be described referring to a document (Kazuyoshi Takagi, Kenji Kano, Tokuji Ikeda, J. Electroanal. Chem., 1988, 445, 211-219). Dp catalyses an oxidation reaction of NADH in the presence of an appropriate mediator (Mox) as represented by the following equation (4).
An NADH oxidation rate (νE, ox) may be represented by the following equation (5) on an assumption that an enzyme reaction follows a ping-pong mechanism.
In addition, vE, ox of equation (5) can be approximated as the following equation (6) when Mox concentration is negligibly small ([Mox]<<KM, ox) in the vicinity of the electrode surface.
From the above, kcat, ox/KM, ox clearly represents a reaction rate constant between DPred and Mox. Further, steady state limiting current of catalyst (Is, ox) observed at a more positive potential from the redox potential of the mediator molecule can be represented by the following equation (7).
The reaction rate constant kcat, ox/KM, ox can be estimated from the measured limiting current value using the above equation (7).
On the other hand, cyclic voltammograms with (b) in FIGS. 5A to 5F are measurement results of the above mediator solutions with 0.11 μM of Dp ([…], [EC 1.6.99.-], from Bacillus stearothermophilus, available from Unitika Ltd.) and 4.8 mM of NADH added. […]

Row | SMILES | reaction rate constant larger than that of the AQS by
7 | OC[c-]1cccc1.[Fe+2].c1cc[cH-]c1 [FMA, ferrocene methanol] | ≥ 1 digit
